The test system of assay [1] is 2 cell embryos from eggs fertilized by treated sperm. Description: Embryo culture of 2 cell embryos in KSOM to blastocyst stage. The following applies: for percentage of blastocyst in relation to the number of two-cell embryos: CatSper KO sperm, 3.5 days in KSOM. The format is cell-based, mouse. As for the experimental part: (§1) Fertilized 2 cell embryos were cultured in KSOM media to blastocyst stage between 3.5 days wt and K. O between 3.8 to 4.1 days. Then they were transferred to 2.5 days post coitum (dpc) pseudo-pregnant CD-1 recipient females using the non-surgical uterine embryo transfer device (65). Pseudo-pregnant CD-1 recipient females were obtained by mating with vasectomized males one day after in vitro fertilization. Only females with a clear plug were chosen as embryo recipients; late morula and early stage blastocysts were chosen to be transferred. Routine genotyping was performed with total DNA from tail biopsy samples from weaning age pups as templates for PCR using genotyping primers for Catsper gene forward [5′-[…]-3′, Seq ID NO: 1] and reverse [S′-[…]-3′; Seq ID NO: 2] and for the reporter gene Lacz forward [5′[…]-3′; Seq ID NO: 3] and reverse [5′-[…]-3′: Seq ID NO: 4] (19).

Another assay relates to mouse sperm. The assay can be described thus: Sperm motility and hyperactivation by CASA after transient A23187 pre-treatment. It is filed as cell-based. As for the experimental part:
(§2) Sperm from CD-1, C57BL6 (K.O control), CatSper KO 19, SLO3 KO (56), Soluble Adenylyl Cyclase KO (20), and PMC4 KO (35) cauda epididymides were allowed to swim out in 1 mL of standard TYH for 10 minutes. Each swim out tube was split in two halves (500 μl each) and one half was incubated with 20 uM A23187 for 10 minutes. Then, the A23187 was washed by centrifugation as described above (2000 and 1500 RPMS×5 min), the remaining sperm were re-suspended in free A23187 TYH standard medium and capacitated for an addition 1 hour and 20 minutes before adding the sperm to the fertilization drop or for CASA analysis.
Sperm suspensions (25 μl) were loaded into one pre-warmed chamber slide (depth, 100 μm) (Leja slide, Spectrum Technologies) and placed on a microscope stage at 37° C. Sperm movements were examined using the CEROS computer-assisted semen analysis (CASA) system (Hamilton Thorne Research, Beverly, MA). The default settings include the following: frames acquired: 90; frame rate: 60 Hz; minimum cell size: 4 pixels; static head size: 0.13-2.43; static head intensity: 0.10-1.52; static head elongation: 5-100. Sperm with hyper activated motility, defined as motility with high amplitude thrashing patterns and short distance of travel, were sorted using the criteria established by (64). The data was analyzed using the CASA nova software (64). At least 20 microscopy fields corresponding to a minimum of 200 sperm were analyzed in each experiment.

Another assay has as its system PKA. The assay can be described thus: Western blot with anti-phosphoPKA substrate antibodies in sperm. The format is cell-based, mouse. The method, then:
Cauda epididymal mouse sperm were placed in 1 ml Hepes-TYH media as stated in figure legend for each experiment. After 10 min incubation at 37° C., epididymides were removed, and the suspension adjusted with non-cap medium to a final concentration of 1-2×10^7 cells/ml. After dilution 1:4 (total 400 μl), sperm were incubated at 37° C. for 1 hour in conditions that support or not capacitation. For capacitation, media was supplemented with 15 mM NaHCO3 and 4 mg/ml BSA. For A23187 treatment, 500 uL of the sperm suspension were taken from the initial swim out and supplemented with 20 μM A23187 for 10 minutes. Then, A23187 was washed off with 2 rounds of centrifugations 1-) 2000 RPMS and the 2-) 1500 RPMS for 5 min each. Sperm were re-suspended in free A23187 media. To evaluate the behavior of A23187 when PKA is inactivated, H89 was used at a concentration of 50 uM for all incubation periods including those used for washing A23187. Sperm proteins were then extracted for western blotting.
Sperm were centrifuged, and washed in 1 ml of phosphate buffer solution (PBS), re-suspended in Laemmli sample buffer (63), and boiled for 4 min. Before Loading, 5% β-mercaptoethanol was added to the protein extracts and boiled for 3 min. Protein extracts equivalent to 1×10^6 sperm were loaded per line and subjected to SDS-PAGE an electro-transfer to PVDF membranes (Bio-Rad) at 250 mA for 60 min on ice. […]

Assay [2] relates to mouse sperm (fertilizing capacity, metaphase II-arrested eggs). The assay can be described thus: In vitro fertilization assay with ionophore pre-treated sperm. The format is cell-based. The following applies: for fertilizing capacity: A23187 treatment. As for the experimental part:
as §2
Metaphase II-arrested eggs were collected from 6-8 week-old super ovulated CD-1 female mice (Charles River Laboratories). Females were each injected with 5-10 IU equine chorionic gonadotropin and 5-10 IU human chorionic gonadotropin 48 h apart. The cumulus-oocyte complexes (COC's) were placed into a well with 500 μl of media (TYH standard medium) previously equilibrated in an incubator with 5% CO2 at 37° C. Fertilization wells containing 20-30 eggs were inseminated with sperm (final concentration of 2.5×10^6 cells/ml) that had been incubated for 1 h and 20 min (in a medium supporting capacitation with or without calcium ionophore treatment A23187). After 4 h of insemination, eggs were washed and put in a fresh media. The eggs were evaluated 24 h post-insemination. To assess fertilization the three following criteria were considered: 1) the formation of the male and female pronuclei, 2) the emission of the second polar body, and 3) two cells stages.

Assay [3] has as its system pseudo-pregnant CD-1 recipient females. Description: Non-surgical embryo transfer to pseudo-pregnant females, pups born. The format is in vivo, mouse. The method, then: as §1
The mark [4] stands for this setting: H89-treated C57BL6 sperm incubated 10 min in A23187.

`CNc1ccc2oc(C[C@H]3O[C@@]4(CC[C@H]3C)O[C@H]([C@H](C)C(=O)c3ccc[nH]3)[C@H](C)C[C@H]4C)nc2c1C(=O)O` [A23187]: the “percentage of blastocyst in relation to the number of two-cell embryos” value in assay [1] (A23187 transient treatment alone) is given as 20%; in assay [1] (combined starved plus rescue with A23187 transient treatment), roughly 90%. Moreover, in assay [1] (eggs fertilized by C57BL6 sperm after A23187 treatment, control about 50%), the “fertilized eggs that continued to the blastocyst stage” value was “over 80%”. Moreover, the “percentage of hyperactive sperm” value with mouse sperm (C57BL6 sperm, short pulse of A23187 (20 uM, 10 min), compared with CD1 sperm) is on record as “increased the percentage of hyperactive C57BL6 sperm to similar levels as those obtained using CD1 sperm”. For the same compound, the hyperactivated motility result was “a significant number of CatSper KO sperm exhibited hyperactivated motility” in the assay on mouse sperm (CatSper1 KO sperm, 20 μM A23187 10 min then washed) and “neither their hyperactivated motility nor their fertilizing capacity was rescued” with mouse sperm (PMCA4 KO sperm, A23187 treatment). Further, the sperm motility entry in the assay on mouse sperm (PMCA4 KO sperm, A23187 addition and removal) was “rendered all the sperm motionless and their motility was not recovered after ionophore removal”; in the assay with mouse sperm (sAC KO sperm, A23187 for 10 min), “a significant fraction of sAC KO sperm became motile”. The hyperactivation result with mouse sperm (sAC KO and SLO3 KO sperm, A23187 for 10 min) is given as “underwent hyperactivation”. The “PKA activity in H89-treated sperm after A23187” value with PKA (setting [4]) was “PKA remains inactive”. The sperm fertilization rate result in assay [2] (C57BL6 sperm, A23187 pre-treatment) was “significant increase”; in assay [2] (FerTDR/DR sperm, A23187 transient incubation) it was “improved”. In assay [2] (CatSper1 KO sperm, A23187 transient treatment alone), the “infertile phenotype (two-cell embryos developed)” value is listed as “rescued the infertile phenotype”. For the same compound, in assay [2] (CatSper KO sperm, A23187-treated), the “fertilization of metaphase II-arrested eggs in vitro” value was “competent to fertilize”. For the same compound, the fertilization rate in assay [2] (CatSper KO sperm, starved plus rescue treatment followed by A23187 transient treatment) is given as roughly 90%. Further, the “fertilizing capacity of H89-treated sperm” value in assay [2] (setting [4]) is listed as “sufficient to induce fertilizing capacity”. For the same compound, the fertilizing capacity entry in assay [2] (PMCA4 KO sperm) was “neither their hyperactivated motility nor their fertilizing capacity was rescued”; in assay [2] (sAC KO and SLO3 KO sperm), “induced fertilizing capacity in sperm from both KO models”. In assay [3] (C57BL6 sperm after A23187 treatment), the “outcome of blastocysts non-surgically transferred to pseudo pregnant females” value is given as “became live pups”. Also, in assay [3] (CatSper KO sperm, A23187 alone, 15 blastocysts transferred), the heterozygous pups born entry is “three”. For the same compound, in assay [3] (blastocysts from A23187-treated CatSper KO sperm, two different females), the “CatSper (+/-) mouse pups born” value is listed as “five”.

On to `O=S(=O)(NCCNCC=Cc1ccc(Br)cc1)c1cccc2cnccc12` [H89, N-[2-[[3-(4-bromophenyl)-2-propen-1-yl]amino]ethyl]5-isoquinolinesulfonamide], for which, in the assay on PKA (C57BL6 sperm, H89 50 uM), the PKA substrate phosphorylation result is listed as “do not show the prototypical increase in PKA substrate phosphorylation”. Further, the “ability to fertilize in vitro in the presence of PKA inhibitor” value in assay [2] (C57BL6 sperm, H89 50 uM) is given as “unable to fertilize in vitro”.

These data come from patent publication US12351821B2, “Method to prepare sperm” (University of Massachusetts, priority 2016, dated 2025).
